Measurements reported in patent US12370463B2, “Continuous-flow, well mixed, microfluidic crystallization device for screening polymorphs, morphologies and crystallization kinetics at controlled supersaturation” (THE BOARD OF TRUSTEES OF THE UNIVERSITY OF ILLINOIS, priority 2019, dated 2025).

What was measured:
Assay type in all cases: physicochemical
[1] = Polymorph and morphology screening of L-histidine in a batch 96 well plate, single injection
Text: (§1) With eight different microfluidic mixers accommodated on a single chip, eight different supersaturations were studied for polymorph and morphology screening of L-histidine. The results of the continuous flow microfluidic crystallizer were further compared with a batch 96 well plate system with single injection of the solutions in a 96 well plate system. Supersaturation adjustments were done by either changing the initial concentration of the API solution and maintaining a constant ratio for the solvent and antisolvent (1:1) or varying the ratios of two mixing streams for constant initial concentration of API in the solvent. Ratios of solvent and antisolvent were controlled by controlling the flowrates of each stream, respectively.
A low supersaturation degree existed in the wells D, C, and H, where supersaturation was respectively 1.74, 1.14 and 1.15. For a medium range of the supersaturations, well B with S=2.28 and well G with S=2 were evaluated. The other three remaining wells, A, E and F represents the high supersaturation range with S=2.57, […], 3.14 respectively. Identical supersaturations for wells A to H were applied to a batch 96 well plate and optical images were collected after 5 and 30 minutes and shown in the micrographs A2 to H2 and A4 to H4.
In order to measure the growth rate for polymorphs of L-histidine at different supersaturations, time-lapsed images of each sample were taken each 60, 120 or 300 seconds after the crystals were first observed within the crystallization zone. […] To confirm the crystal faces, the crystallography of the polymorph B was imported into WINXMORPH and 3 final models were simulated for existing form B in the samples. The growth rate measurements of the form A crystals, however was done by measuring the distance between the two longest faces due to the significant aspect ratio of the two dominant faces of this crystal form. Using MATLAB (MATLAB 9.3, The MathWorks Inc.) the ratio of the polymorphic form A was measured for the eight samples in both continuous flow crystallizer as well as the batch 96 well plate system. […]

[2] = Polymorph and morphology screening of L-histidine by antisolvent crystallization in the continuous-flow multi-well microfluidic mixer; settings: for polymorphic form obtained: water solvent, ethanol antisolvent, room temperature
Protocol: The L-histidine crystals were formed at room temperature with water as the solvent and ethanol as the antisolvent, wherein the microfluidic system was configured to have a cyclone-shaped geometry.
The multi-well microfluidic mixer device was placed on a temperature-controlled stage of the optical microscope (Olympus BX53M, Olympus America Inc.). A saturated solution of L-histidine in water was prepared for the solubility measurement experiment at room temperature.
Eight different syringes were filled with solutions of L-histidine in the water at known concentrations as the source of solvent streams and the other eight syringes were filled with ethanol as antisolvent streams. Syringes were then inserted into 4 programmed syringe pumps (NE-4000, New Era Pump System Inc.). Inlets were connected to one-way microfluidic check valves to prevent backflow inside the channels.
All the microscopic images were recorded with a built-in color camera (LC 30, Olympus America Inc.) using reflected light mode. Capturing time-lapsed images and the growth rate analysis was performed for different samples. Further, these images were processed through MATLAB (MATLAB 9.3, The MathWorks Inc.) for form percentage measurements. L-histidine has two polymorphic form with different crystal habits reported in the literature.
After benchmarking the merged inlet geometry and observing the consistency between the two discussed geometry, the multiwell screening system 10 generally shown in FIG. 4 and using the eight microfluidic chambers 100 having the merged inlet geometry of FIG. 5 was used to perform a parallel screening of L-histidine.
as §1
L-histidine with the two polymorphic forms of form A (stable) and form B (metastable) was selected for the parallel screening. The disclosed microfluidic system provides for the instantaneous, in-situ analysis of the polymorphic change. The studied supersaturations were divided into three regions of low, medium and high supersaturations to understand the effect of the supersaturation ratio on the polymorphic form ratios. […]

[3] = Antisolvent crystallization of o-ABA in the microfluidic mixer, merged and separated inlet designs
Text: The crystals were formed at room temperature using ethanol as solvent and water as antisolvent. The microfluidic system was configured to have a cyclone-shaped geometry.
The microfluidic device was placed on the temperature-controlled stage of the optical microscope (Olympus BX53M, Olympus America Inc.). The o-ABA dissolved in ethanol and pure water was pumped separately into the microfluidic device using programmed syringe pumps (NE-4000, New Era Pump System Inc.). The flow rates of the o-ABA-ethanol solution and pure water were adjusted to achieve the desired supersaturations (S=1.2, 1.9, and 2.5), which were determined using the solubility curve of form I of o-ABA crystals. The inlets of the microfluidic device were connected with one-way check valves to avoid backflow from the mixer. The time-lapse images of the crystallization compartment were recorded using a built-in color camera (LC 30, Olympus America Inc.) of the optical microscope under the reflected light mode, which are also processed using MATLAB (MATLAB 9.3, The MathWorks Inc.) to measure growth rates and particle size distribution. The polymorphs of o-ABA at different supersaturations (S=1.2, 1.9, and 2.5) were identified using (i) distinct morphological features, such as form I having a prismatic morphology whereas form II has a needle-like morphology, and (ii) X-ray diffraction (XRD) experiments on a Bruker DISCOVER diffractometer with Cu Kα radiation.
The antisolvent crystallization of o-ABA was studied with a merged inlet design (FIG. 5) and results were compared with a separated inlet design. FIG. 11, panels A-H show the micrographs of the samples obtained from antisolvent crystallization of o-ABA in the ethanol-water mixture at two different supersaturations (S=1.2 and S=1.9). The relative relationship between the form and morphology of o-ABA allows for instant detection of each polymorph with the in-situ analysis.

crystal size distribution ([1]; batch 96 well plate) | polymorphic form obtained ([1]; high supersaturation, batch 96 well plate) | growth rates of crystals over the time of the measurements ([1]; identical samples in the batch system) | growth rates of crystals at similar supersaturation ([2]; continuous microfluidic mixer, time-lapsed images) | polymorphic form obtained ([2]; supersaturations below 2.3 (low and medium ranges)) | polymorphic form obtained ([2]; supersaturations higher than 2.3) | SMILES | crystal size distribution ([2]; continuous microfluidic mixer) | polymorphic form obtained ([3]; S=1.9, merged inlets geometry) | polymorphic transformation during the experiment ([3]; S=1.9, merged inlets geometry, constant supersaturation) | polymorphic form obtained ([3]; lower supersaturations, ethanol-water mixture)
wide range of size distribution | a mixture of both polymorphic forms | decrease significantly | almost constant | a mixture of forms A and B | only crystallizes in form B | N[C@@H](Cc1c[nH]cn1)C(=O)O [L-histidine] | more uniform and have a narrower size distribution |  |  | 
 |  |  |  |  |  | Nc1ccccc1C(=O)O [o-ABA, o-aminobenzoic acid] |  | metastable form II was obtained | did not transform to the stable form | crystals of polymorphic form I are obtained
